In US6555710B1, “Aminobenzophenones as inhibitors of IL-1 β and TNF-α” (Leo Pharmaceutical Products Ltd a/s Lovens Kemiske Fabrik …, priority 1999, dated 2003):
pIC50: −log10 of the molar value.

Legend:
Type in all cases: cell-based
IL-1β = assay: Inhibition of IL-1β secretion in LPS stimulated peripheral blood mononuclear cells (ELISA); details: PBMC; LPS stimulated human peripheral blood mononuclear cells, 18 hours; read-out: The median inhibition concentration (IC50) of IL-1β
Protocol: (§1) To study the effect of the compound of the present invention in vitro the inhibition of the IL-1β and TNF-α secretion was measured using the following procedure:
(§2) Cytokine production was measured in the media from lipopolysaccharide (LPS) stimulated peripheral blood mononuclear cells. The mononuclear cells were isolated from human peripheral blood by Lymphoprep® (Nycomed, Norway) fractionation and suspended in RPMI 1640 (growth medium) with foetal calv serum (FCS, 2%), at a concentration of 5×10^5 cells/ml. The cells were incubated in 24-well tissue culture plates in 1 ml aliquots. Test compounds were dissolved in dimethylsulfoxide (DMSO, 10 mM) and were diluted with the medium. Compounds were added to the cells for 30 minutes, then LPS ([…] final concentration) was added. The plates were incubated for 18 hours, and the concentration of IL-1β and TNF-α in the medium was determined by enzyme-linked immunosorbent assays. The median inhibitory concentrations (IC50) of the compounds were calculated.

[1] = test system: Human polymorphonuclear (PMN) granulocytes; assay: Inhibition of PMN superoxide secretion (ferricytochrome C reduction, TNF-α primed, fMLP stimulated); details: read-out: The median inhibition concentration (IC50) of PMN-superoxide
Protocol: The compounds of the present invention also show similar activities in the ability to inhibit PMN (polymorphonuclear) superoxide secretion which is also indicative of potentially useful anti-inflammatory drugs. The compounds were tested using the following procedure:
Human polymorphonuclear (PMN) granulocytes were isolated from human blood by dextran sedimentation, Lymphoprep® fractionation and hypotonic lysis of contaminating erythrocytes. Superoxide anion generation was measured as the superoxide dismutase inhibitable reduction of ferricytochrome C (Madhu, S. B. et al, Inflammation, 16, 241, (1992)). The cells were suspended in Hanks' balanced salt solution, and incubated for 10 minutes at 37° C. with test compounds. The cells were primed by the addition of TNF-α (3 ng/ml final concentration) for 10 minutes, and then ferricytochrome C, (final concentration 750 μg/ml), bovine serum albumin (BSA, final concentration 1 mg/ml) and formyl-methionyl-leucyl-phenylalanine (fMLP, final concentration 10^−7 M) were added for 3 minutes. The cells were chilled on ice, and were spun down. The optical densities in the cell-free supernatant was measured in a spectrophotometer. The median inhibitory concentration (IC50) of the compounds was calculated.

TNF-α = assay: Inhibition of TNF-α secretion in LPS stimulated peripheral blood mononuclear cells (ELISA); details: PBMC; LPS stimulated human peripheral blood mononuclear cells, 18 hours; read-out: The median inhibition concentration (IC50) of TNF-α
Protocol: as §1, §2

Row | Compound | pIC50 (IL-1β) | pIC50 [1] | pIC50 (TNF-α)
1 | Cc1ccccc1C(=O)c1ccc(Nc2ccc(Br)cc2NC(=O)C(F)(F)F)cc1Cl [Compound 101, 2,2,2-Trifluoro-N-[5-bromo-2-[3-chloro-4-(2-methylbenzoyl)-phenylamino]-phenyl]acetamide] | 7.49 | 7.89 | 8.20
2 | Cc1ccccc1C(=O)c1ccc(Nc2ccc(F)cc2NC(=O)C(F)(F)F)cc1Cl [Compound 102, 2,2,2-Trifluoro-N-[2-[3-chloro-4-(2-methylbenzoyl)-phenylamino]-5-fluoro-phenyl]acetamide] | 8.20 | 7.60 | 8.49
3 | Cc1ccccc1C(=O)c1ccc(Nc2ccccc2NC(=O)C(F)(F)F)cc1Cl [ref. b), 2,2,2-Trifluoro-N-[2-[3-chloro-4-(2-methylbenzoyl)-phenylamino]-phenyl]acetamide, reference compound] | 7.70 | 7.89 | 8.40
